Assay: xn = mol fraction of the nth substance listed
Settings: 101 kPa, Liquid

O=[N+]([O-])c1ccccc1 [nitrobenzene] + c1ccccc1
Settings | mass density [kg/m3]
293.15 K, x2 = 0 | 1202.95
293.15 K, x2 = 0.0532 | 1187.99
293.15 K, x2 = 0.1189 | 1169.24
293.15 K, x2 = 0.1842 | 1150.3
293.15 K, x2 = 0.2479 | 1131.5
293.15 K, x2 = 0.3012 | 1115.52
293.15 K, x2 = 0.3581 | 1098.17
293.15 K, x2 = 0.425 | 1077.37
293.15 K, x2 = 0.4891 | 1057.04
293.15 K, x2 = 0.5311 | 1043.49
293.15 K, x2 = 0.6023 | 1020.07
293.15 K, x2 = 0.6521 | 1003.34
293.15 K, x2 = 0.7198 | 980.14
293.15 K, x2 = 0.7811 | 958.64
293.15 K, x2 = 0.8534 | 932.66
293.15 K, x2 = 0.9212 | 907.66
303.15 K, x2 = 0 | 1193.56
303.15 K, x2 = 0.0612 | 1176.18
303.15 K, x2 = 0.1384 | 1153.92
303.15 K, x2 = 0.1732 | 1143.76
303.15 K, x2 = 0.2543 | 1119.7
303.15 K, x2 = 0.3132 | 1101.89
303.15 K, x2 = 0.3821 | 1080.7
303.15 K, x2 = 0.4422 | 1061.84
303.15 K, x2 = 0.4922 | 1045.9
303.15 K, x2 = 0.5543 | 1025.75
303.15 K, x2 = 0.6123 | 1006.56
303.15 K, x2 = 0.6831 | 982.62
303.15 K, x2 = 0.7534 | 958.28
303.15 K, x2 = 0.8113 | 937.78
303.15 K, x2 = 0.8713 | 916.1
303.15 K, x2 = 0.9378 | 891.52
313.15 K, x2 = 0 | 1183.37
313.15 K, x2 = 0.0522 | 1168.46
313.15 K, x2 = 0.1234 | 1147.88
313.15 K, x2 = 0.1923 | 1127.63
313.15 K, x2 = 0.2612 | 1107.04
313.15 K, x2 = 0.3122 | 1091.57
313.15 K, x2 = 0.3723 | 1073.06
313.15 K, x2 = 0.4234 | 1057.08
313.15 K, x2 = 0.4865 | 1037.03
313.15 K, x2 = 0.5382 | 1020.3
313.15 K, x2 = 0.6032 | 998.9
313.15 K, x2 = 0.6632 | 978.75
313.15 K, x2 = 0.7219 | 958.66
313.15 K, x2 = 0.7932 | 933.72
313.15 K, x2 = 0.8428 | 916.03
313.15 K, x2 = 0.9247 | 886.12
323.15 K, x2 = 0 | 1172.38
323.15 K, x2 = 0.0479 | 1158.64
323.15 K, x2 = 0.1387 | 1132.24
323.15 K, x2 = 0.1842 | 1118.82
323.15 K, x2 = 0.2487 | 1099.55
323.15 K, x2 = 0.3286 | 1075.26
323.15 K, x2 = 0.392 | 1055.64
323.15 K, x2 = 0.435 | 1042.13
323.15 K, x2 = 0.5023 | 1020.68
323.15 K, x2 = 0.543 | 1007.49
323.15 K, x2 = 0.592 | 991.42
323.15 K, x2 = 0.6633 | 967.59
323.15 K, x2 = 0.7328 | 943.85
323.15 K, x2 = 0.7931 | 922.82
323.15 K, x2 = 0.8538 | 901.23
323.15 K, x2 = 0.9423 | 868.96
333.15 K, x2 = 0 | 1160.59
333.15 K, x2 = 0.0501 | 1146.17
333.15 K, x2 = 0.1421 | 1119.35
333.15 K, x2 = 0.1924 | 1104.47
333.15 K, x2 = 0.2517 | 1086.72
333.15 K, x2 = 0.3184 | 1066.47
333.15 K, x2 = 0.3618 | 1053.11
333.15 K, x2 = 0.4248 | 1033.47
333.15 K, x2 = 0.4921 | 1012.12
333.15 K, x2 = 0.5524 | 992.65
333.15 K, x2 = 0.6013 | 976.62
333.15 K, x2 = 0.664 | 955.73
333.15 K, x2 = 0.723 | 935.71
333.15 K, x2 = 0.7813 | 915.56
333.15 K, x2 = 0.8342 | 896.97
333.15 K, x2 = 0.9234 | 864.89
343.15 K, x2 = 0 | 1148
343.15 K, x2 = 0.0632 | 1129.76
343.15 K, x2 = 0.1567 | 1102.42
343.15 K, x2 = 0.219 | 1083.91
343.15 K, x2 = 0.2678 | 1069.26
343.15 K, x2 = 0.3347 | 1048.9
343.15 K, x2 = 0.3972 | 1029.6
343.15 K, x2 = 0.4581 | 1010.51
343.15 K, x2 = 0.5124 | 993.23
343.15 K, x2 = 0.5639 | 976.61
343.15 K, x2 = 0.6384 | 952.15
343.15 K, x2 = 0.7038 | 930.24
343.15 K, x2 = 0.7598 | 911.15
343.15 K, x2 = 0.8234 | 889.07
343.15 K, x2 = 0.8824 | 868.19
343.15 K, x2 = 0.9423 | 846.61
